In US9155743B2, “Bicyclic heterocycle compounds and their uses in therapy” (priority 2011, dated 2015) one finds IC50, EC50 and inhibition data, which are given here for 16 molecules.

Where a name gives a salt, the structure may show the parent alone. Read-outs that look alike come from different tables or passages of the source.

The target in one assay is cIAP-1 BIR3 domain (Homo sapiens (Human), UniProt Q13490). Put plainly: cIAP-1 in vitro competitive displacement binding assay (fluorescence polarization). To be noted: given as ranges, read-out: IC50 or PI cIAP1. Background: Polarisation of emitted light reports the rotation of a fluorescent probe.
For a further assay, the target named is XIAP BIR3 domain (Homo sapiens (Human), UniProt P98170). The assay can be described thus: XIAP in vitro competitive displacement binding assay (fluorescence polarization). To be noted: given as ranges; a range also covers PI >= approx 50% at <= the upper concentration; read-out: IC50 or PI Xiap.
The subject of the next assay is XIAP or cIAP1. The assay can be described thus: Assays using XIAP and cIAP1 (result stated for XIAP or cIAP1). Type of assay: binding, human.
Assay [1] relates to EVSA-T (human breast carcinoma). The assay can be described thus: Anti-proliferative activity, Alamar Blue assay, EVSA-T. Format: cell-based. To be noted: for inhibition at 10 µM: read-out: EC50 or PI EVSA-T prolif (percentage inhibition). (The colour change of resazurin is a common sign of viable cells or microbes.)
Setting [2] is: AbuRPFK(5&6FAM)-amide probe (Probe B).
The mark [3] stands for this setting: read-out: IC50 or at least 50% inhibition of the activity at a concentration of 1 μM, against XIAP or cIAP1.
The mark [4] stands for this setting: read-out: IC50 or at least 50% inhibition of the activity at a concentration of 10 μM, against XIAP or cIAP1.
[5] abbreviates: EVSA-T, 72 hours compound incubation, read-out: EC50 or PI EVSA-T prolif.
The mark [6] stands for this setting: read-out: EC50 or greater than 50% at 10 μM, EVSA-T cell line.
Setting [7] is: EVSA-T, 72 h, read-out: EC50 or PI EVSA-T prolif.
[8] abbreviates: EVSA-T, read-out: EC50 or greater than 50% at 10 μM.

By EC50 is commonly meant the concentration needed to bring the measured effect to its halfway point. As to `CN[C@@H](C)C(=O)Nc1ccc2c(n1)O[C@@](C)(c1ccccc1)C(=O)N2c1ccc(Cl)cc1` [Example 3, (S)—N—[(S)-1-(4-Chloro-phenyl)-3-methyl-2-oxo-3-phenyl-2,3-dihydro-1H-pyrido[2,3-b][1,4]oxazin-6-yl]-2-methylamino-propionamide hydrochloride], the IC50 at cIAP-1 BIR3 domain (setting [2]) is 10 to 1000 nM; at XIAP BIR3 domain, 10 to 1000 nM; in the assay with XIAP or cIAP1 (setting [3]), below 1000 nM; in the assay with XIAP or cIAP1 (setting [4]), below 10000 nM. Further, the EC50 in assay [1] (setting [5]) was 280 nM; in assay [1] (setting [6]), below 10000 nM.

Broadly, the inhibition is the change of the read-out against control, counted positive when it falls. On to `CN[C@@H](C)C(=O)Nc1ccc2c(n1)O[C@@H](Cc1ccccc1)C(=O)N2` [Example 4, (S)—N—((S)-3-Benzyl-2-oxo-2,3-dihydro-1H-pyrido[2,3-b][1,4]oxazin-6-yl)-2-methylamino-propionamide hydrochloride], for which the IC50 on cIAP-1 BIR3 domain (AVPIK(5&6FAM)-amide probe (Probe A)) is 10 to 1000 nM; at XIAP BIR3 domain, 1000 to 10000 nM; in the assay with XIAP or cIAP1 (setting [3]), below 1000 nM; in the assay on XIAP or cIAP1 (setting [4]) it was below 10000 nM. In addition, in assay [1] (EVSA-T), the inhibition at 10 µM was -13%.

Regarding `CN[C@@H](C)C(=O)Nc1ccc2c(n1)OC(C)(C)C(=O)N2c1ccc(Cl)cc1` [Example 6, (S)-N-[1-(4-Chloro-phenyl)-3,3-dimethyl-2-oxo-2,3-dihydro-1H-pyrido[2,3-b][1,4]oxazin-6-yl]-2-methylamino-propionamide hydrochloride], the IC50 is 10 to 1000 nM at cIAP-1 BIR3 domain (setting [2]), 10 to 1000 nM on XIAP BIR3 domain, below 1000 nM with XIAP or cIAP1 (setting [3]) and below 10000 nM in the assay with XIAP or cIAP1 (setting [4]). Besides, the EC50 in assay [1] (setting [5]) was 120 nM; in assay [1] (setting [6]), below 10000 nM.

Turning to `CN[C@@H](C)C(=O)Nc1ccc2c(n1)OC1(CCCCC1)C(=O)N2c1ccc(Cl)cc1` [Example 7, (2S)-N-[4′-(4-Chlorophenyl)-3′-oxo-3′,4′-dihydrospiro[cyclohexane-1,2′-pyrido[2,3-b][1,4]oxazine]-7′-yl]-2-(methylamino)propanamide hydrochloride], the IC50 is 10 to 1000 nM on cIAP-1 BIR3 domain (setting [2]), 10 to 1000 nM on XIAP BIR3 domain, below 1000 nM in the assay on XIAP or cIAP1 (setting [3]) and below 10000 nM in the assay on XIAP or cIAP1 (setting [4]). Also, the figures for the EC50 in assay [1] (setting [5]) and in assay [1] (setting [6]) were 440 nM and below 10000 nM, respectively.

On to `CN[C@@H](C)C(=O)Nc1ccc2c(n1)OC1(CCCC1)C(=O)N2c1ccc(Cl)cc1` [Example 8, (2S)-N-[4′-(4-Chlorophenyl)-3′-oxo-3′,4′-dihydrospiro[cyclopentane-1,2′-pyrido[2,3-b][1,4]oxazine]-7′-yl]-2-(methylamino)propanamide hydrochloride], for which the IC50 is 10 to 1000 nM on cIAP-1 BIR3 domain (setting [2]), 10 to 1000 nM on XIAP BIR3 domain, below 1000 nM in the assay with XIAP or cIAP1 (setting [3]) and below 10000 nM in the assay on XIAP or cIAP1 (setting [4]). In addition, the EC50 in assay [1] (setting [5]) is 190 nM; in assay [1] (setting [6]), below 10000 nM.

With `CN[C@@H](C)C(=O)Nc1ccc2c(n1)OC1(Cc3ccccc3C1)C(=O)N2c1ccc(Cl)cc1` [Example 9, (2S)-N-[4′-(4-Chlorophenyl)-3′-oxo-1,3,3′,4′-tetrahydrospiro[indene-2,2′-pyrido[2,3-b][1,4]oxazine]-7′-yl]-2-(methylamino)propanamide hydrochloride], the IC50 at cIAP-1 BIR3 domain (setting [2]) is 10 to 1000 nM; at XIAP BIR3 domain, 10 to 1000 nM; in the assay with XIAP or cIAP1 (setting [3]), below 1000 nM; in the assay with XIAP or cIAP1 (setting [4]), below 10000 nM. Moreover, the EC50 in assay [1] (setting [5]) is 120 nM; in assay [1] (setting [6]), below 10000 nM.

As for `CN[C@@H](C)C(=O)Nc1ccc2c(n1)OC(C)(C1CCCC1)C(=O)N2c1cccc(Cl)c1` (stereo partly drawn) [Example 13, (S)-N-[1-(3-Chloro-phenyl)-3-cyclopentyl-3-methyl-2-oxo-2,3-dihydro-1H-pyrido[2,3-b][1,4]oxazin-6-yl]-2-methylamino-propionamide hydrochloride], the IC50 on cIAP-1 BIR3 domain (setting [2]) is 10 to 1000 nM; at XIAP BIR3 domain, 10 to 1000 nM; in the assay on XIAP or cIAP1 (setting [3]) it was below 1000 nM; in the assay with XIAP or cIAP1 (setting [4]), below 10000 nM. The results for the concentration giving a half-maximal response (EC50) in assay [1] (setting [5]) and in assay [1] (setting [6]) were 170 nM and below 10000 nM, respectively.

`CN[C@@H](C)C(=O)Nc1ccc2c(n1)OC(C)(CCC(C)C)C(=O)N2c1ccccc1` (stereo partly drawn) [Example 14, (S)-2-Methylamino-N-[3-methyl-3-(3-methyl-butyl)-2-oxo-1-phenyl-2,3-dihydro-1H-pyrido[2,3-b][1,4]oxazin-6-yl]-propionamide hydrochloride]: the IC50 on cIAP-1 BIR3 domain (setting [2]) and on XIAP BIR3 domain was 10 to 1000 nM throughout. Moreover, the concentration for a half-maximal effect (EC50) in assay [1] (setting [7]) was 240 nM; in assay [1] (setting [8]), below 10000 nM.

Consider `CN[C@@H](C)C(=O)Nc1ccc2c(n1)CN(c1cccc(Cl)c1)C(=O)N2c1cccc(Cl)c1` [Example 24, (S)—N-[1,3-Bis-(3-chloro-phenyl)-2-oxo-1,2,3,4-tetrahydro-pyrido[3,2-d]pyrimidin-6-yl]-2-methylamino-propionamide hydrochloride], for which the IC50 was 10 to 1000 nM on cIAP-1 BIR3 domain (setting [2]), 10 to 1000 nM at XIAP BIR3 domain, below 1000 nM with XIAP or cIAP1 (setting [3]) and below 10000 nM in the assay with XIAP or cIAP1 (setting [4]). The EC50 in assay [1] (setting [5]) was 360 nM; in assay [1] (setting [6]), below 10000 nM.

Regarding `CN[C@@H](C)C(=O)Nc1ccc2c(n1)CN(c1cc(Cl)cc(Cl)c1)C(=O)N2c1cc(Cl)cc(Cl)c1` [Example 25, (S)—N-[1,3-Bis-(3,5-dichloro-phenyl)-2-oxo-1,2,3,4-tetrahydro-pyrido[3,2-d]pyrimidin-6-yl]-2-methylamino-propionamide hydrochloride], the IC50 at cIAP-1 BIR3 domain (setting [2]) is 10 to 1000 nM; at XIAP BIR3 domain, 10 to 1000 nM; in the assay on XIAP or cIAP1 (setting [3]), below 1000 nM; in the assay with XIAP or cIAP1 (setting [4]), below 10000 nM. Also, the values for the EC50 in assay [1] (setting [5]) and in assay [1] (setting [6]) were 2300 nM and below 10000 nM, respectively.

As to `CN[C@@H](C)C(=O)Nc1ccc2c(n1)CN(C1CCC(C)(C)CC1)C(=O)N2c1cccc(Cl)c1` [Example 35, (S)-N-[1-(3-Chloro-phenyl)-3-(4,4-dimethyl-cyclohexyl)-2-oxo-1,2,3,4-tetrahydro-pyrido[3,2-d]pyrimidin-6-yl]-2-methylamino-propionamide hydrochloride], the IC50 was 10 to 1000 nM on cIAP-1 BIR3 domain (setting [2]), 10 to 1000 nM on XIAP BIR3 domain, below 1000 nM with XIAP or cIAP1 (setting [3]) and below 10000 nM in the assay on XIAP or cIAP1 (setting [4]). The EC50 was 650 nM in assay [1] (setting [5]) and below 10000 nM in assay [1] (setting [6]).

As to `CN[C@@H](C)C(=O)Nc1ccc2c(n1)CN(C(C)C(C)C)C(=O)N2c1cccc(Cl)c1` (stereo partly drawn) [Example 36, (S)—N-[1-(3-Chloro-phenyl)-3-(1,2-dimethyl-propyl)-2-oxo-1,2,3,4-tetrahydro-pyrido[3,2-d]pyrimidin-6-yl]-2-methylamino-propionamide], the IC50 on cIAP-1 BIR3 domain (setting [2]) was 10 to 1000 nM; at XIAP BIR3 domain it was 10 to 1000 nM; in the assay on XIAP or cIAP1 (setting [3]) it was below 1000 nM; in the assay with XIAP or cIAP1 (setting [4]), below 10000 nM. The EC50 in assay [1] (setting [5]) was 880 nM; in assay [1] (setting [6]), below 10000 nM.

`CN[C@@H](C)C(=O)Nc1ccc2c(n1)CN(C(C)C1CCC1)C(=O)N2c1cccc(Cl)c1` (stereo partly drawn) [Example 37, (S)-N-[1-(3-Chloro-phenyl)-3-(1-cyclobutyl-ethyl)-2-oxo-1,2,3,4-tetrahydro-pyrido[3,2-d]pyrimidin-6-yl]-2-methylamino-propionamide hydrochloride]: the IC50 on cIAP-1 BIR3 domain (setting [2]) is 10 to 1000 nM; at XIAP BIR3 domain, 10 to 1000 nM; in the assay with XIAP or cIAP1 (setting [3]), below 1000 nM; with XIAP or cIAP1 (setting [4]) it was below 10000 nM. Besides, the EC50 in assay [1] (setting [5]) is 620 nM; in assay [1] (setting [6]) it was below 10000 nM.

For the molecule `CN[C@@H](C)C(=O)Nc1ccc2c(n1)CN(C1CCN(C(C)=O)CC1)C(=O)N2c1cccc(Cl)c1` [Example 38, (S)—N-[3-(1-Acetyl-piperidin-4-yl)-1-(3-chloro-phenyl)-2-oxo-1,2,3,4-tetrahydro-pyrido[3,2-d]pyrimidin-6-yl]-2-methylamino-propionamide], the IC50 at cIAP-1 BIR3 domain (setting [2]) is 10 to 1000 nM; at XIAP BIR3 domain, 1000 to 10000 nM; with XIAP or cIAP1 (setting [3]), below 1000 nM; with XIAP or cIAP1 (setting [4]), below 10000 nM. Also, in assay [1] (EVSA-T), the inhibition at 10 µM worked out at 75%. The half-maximal effective concentration (EC50) in assay [1] (setting [6]) was below 10000 nM.

Turning to `CN[C@@H](C)C(=O)Nc1ccc2c(n1)CN(CC1CCCC1)C(=O)N2c1cccc(Cl)c1` [Example 42, (S)—N-[1-(3-Chloro-phenyl)-3-cyclopentylmethyl-2-oxo-1,2,3,4-tetrahydro-pyrido[3,2-d]pyrimidin-6-yl]-2-methylamino-propionamide hydrochloride], the IC50 at cIAP-1 BIR3 domain (setting [2]) is 10 to 1000 nM; at XIAP BIR3 domain it was 10 to 1000 nM; in the assay with XIAP or cIAP1 (setting [3]) it was below 1000 nM; with XIAP or cIAP1 (setting [4]), below 10000 nM.

For the molecule `CCC1(CC)Oc2nc(NC(=O)[C@H](C)N)ccc2N(c2ccc(Cl)cc2)C1=O` [Example 45, (S)-2-Amino-N-[1-(4-chloro-phenyl)-3,3-diethyl-2-oxo-2,3-dihydro-1H-pyrido[2,3-b][1,4]oxazin-6-yl]-propionamide hydrochloride], the IC50 on XIAP BIR3 domain was 10 to 1000 nM; in the assay on XIAP or cIAP1 (read-out: IC50 or at least 50% inhibition of the activity at a concentration of 1 μM), below 1000 nM; with XIAP or cIAP1 (read-out: IC50 or at least 50% inhibition of the activity at a concentration of 10 μM), below 10000 nM. Further, the 50% effective concentration (EC50) in assay [1] (setting [7]) is 2900 nM; in assay [1] (setting [8]), below 10000 nM.
